Test results taken from patent publication US9938328B2, “Use of PEDF-derived polypeptides for treating alopecia and/or hair depigmentation” (MacKay Memorial Hospital, priority 2012, dated 2018).
Entries after “also recorded” stand apart in the source; their conditions may differ. Like-named read-outs stand apart in the source and are kept apart here.

Assays:
C57BL/6 mice = test: Hair regrowth in DHT-injected depilated mice, topical peptide gel for 14 days; assay type: in vivo, mouse; conditions: for Numbers of Hair Bulbs/mm deep subcutis / Hair Growth Score: DHT 30 mg/kg s.c. twice per week, gel 25 μM once per day for 14 days; for increase in total number of hair bulbs versus vehicle or 18-mer / hair regrowth after depilation (FIG. 7, in words): DHT-injected mice; for hair regrowth after depilation (FIG. 7, in words): daily application, day-18 post-depilation; for Hair Growth Score: scale 0 (0%) to 5 (80-100% of shaved area dark)
Procedure: (§1) Before use, the stock containing the 44-mer was prepared into a working dilution, which is then mixed with an antibiotic ointment containing 5 mg/g neomycin sulfate and 12.5 mg/g bacitracin to obtain an antibiotic ointment containing 25 μM of 44-mer. As to other PEDF peptides, 5 μl of 5 mM PEDF peptide stock was gradually dissolved in ethyl alcohol (30% w/w in distilled water), and then 1-oleoyl-rac-glycerol (1% w/w, a skin penetration enhancer) and light mineral oil (1% w/w) were gradually added. The solution was finally gelled by adding hydroxypropyl methylcellulose (5% w/w) to a final volume of 1 ml. A DMSO vehicle corresponding to the peptide formulation was prepared for the purpose of in vivo comparison. FITC-29-mer was also dissolved in the same formulation for applied on top of skin to determining the follicular distribution of FITC-29-mer.
(§2) For topical treatments, 350 mg ointment or gel containing 25 μM of PEDF peptide was spread gently over dorsal skin per mouse.
To evaluate the effect of PEDF peptide on restarting hair growth, C57BL/6 mice were depilated as described in Example 3.2. At day-11 post-depilation, mice (six to ten mice per experimental condition) were injected subcutaneously (30 mg/kg body weight) in the shaved dorsal area with DHT solution (1.5 mg of DHT mixed within 200 μl of olive oil), and then the mice were injected with DHT twice per week during the course of the study. After the first DHT injection, 350 mg vehicle gel or gel containing 25 μM PEDF peptide (29-mer, 24-mer, 20-mer, or 18-mer) was topically applied to the back skin of mice once per day for 14 days. Changes in hair coat were recorded by photographing with a digital camera (FIG. 7), and the percentage of the shaved area that became dark (re-grown hair) was measured. The scores of hair regrowth after DHT injection was evaluated using the following scale: 0, 0% (no hair growth); 1, <20%; 2, 20-39%; 3, 40-59%; 4, 60-79%; 5, 80-100%. Numbers of hair bulbs per unit length (1 mm) of deep subcutis were counted as described above.

male C57BL/6 mice = test: DHT-induced catagen development in depilated mice, topical peptide gel (histomorphometry, TUNEL, BrdU); assay type: in vivo, mouse; conditions: day-15 post-depilation; for hair cycle phase of hair follicles (histology, in words): 4 days after the DHT injection; for BrdU Labeling Index (%) in HB: hair bulb; for Phase (%) Anagen-Catagen I / Phase (%) Catagen II-III / Phase (%) Catagen IV-V / Phase (%) Catagen VI-VIII: percentage of hair follicles
Procedure: as §1, §2
The murine back skin was harvested parallel to the vertebral line to obtain longitudinal sections through the hair follicles. Dorsal skin was fixed in 4% paraformaldehyde and embedded in paraffin blocks to obtain longitudinal section. Tissues were sliced into 5 μm sections. Before use, fixed samples were de-paraffinized in xylene and rehydrated in a graded series of ethanol. General histology was performed using H&E dye. Digital photomicrographs (Zeiss epifluorescence microscope; Jena, Germany) were taken from representative areas at a fixed magnification of 100×.
For analysis of HF morphogenesis, animals were euthanized at day 15 post-depilation. The percentage of hair follicles in different stages of morphogenesis was assessed on the accepted basis of murine HF morphological criteria as described by Müuller-Röver et al. (Journal of Investigative Dermatology (2001) 117, 3-15). At least 24 longitudinally cut HF sections obtained from six to ten DHT-treated animals, were analyzed.
(§3) The vibrissae follicle cryosections were washed three times in PBS. Formalin-fixed, paraffin-embedded skin specimens were deparaffinized in xylene and rehydrated in a graded series of ethanol. Sections were then stained with TdT-mediated dUTP nick-end labeling (TUNEL)-based kit (Roche Molecular Biochemicals, Indianapolis, Ind.) following the manufacturer's instructions. The cell number was monitored by counterstaining with Hoechst 33258 (blue). The nuclei were calculated in ten randomly selected fields of the three different chambers by a Zeiss epifluorescence microscope (400×, 10 fields/sample). Pictures were recorded on Zeiss software.
(§4) For animal study, BrdU was reconstituted in DMSO as stock (80 mM). 10 μl of BrdU mixed with 90 μl of PBS was intraperitoneally injected into mouse at 16 hours prior to euthanasia. Formalin-fixed, paraffin-embedded skin specimens were deparaffinized in xylene and rehydrated in a graded series of ethanol before performing immunohistochemistry. The vibrissae follicle cryosections were washed three times in PBS and then exposed to 1 N HCl at room temperature for 1 hour for subsequent immunohistochemistry.
For in vivo analysis, a 5α-dihydrotestosterone (DHT) animal model was employed. Six-week-old male C57BL/6 mice (weighing 15-20 g) in the telogen stage of the hair cycle were depilated using a melted wax/rosin mixture (1:1) under general anesthesia, and the anagen stage was induced. DHT was dissolved in DMSO to give a 50 mg/ml stock solution. On day-11 post-depilation, mice (six to ten mice per experimental condition) were injected subcutaneously in the shaved dorsal area with DHT solution (30 mg/kg body weight; 1.5 mg of DHT mixed within 200 μl of olive oil per mouse). After the DHT injection, 350 mg vehicle gel or gel containing 25 μM of PEDF peptide (29-mer, 24-mer, 20-mer, or 18-mer) was topically applied to the back skin of mice once per day for 3 days. […]

[1] = tested on: male mouse vibrissal hair follicles; test: Organ culture of mouse vibrissal hair follicles challenged with DHT (TUNEL, BrdU, histology); assay type: cell-based; conditions: for BrdU Labeling Index (%) / TUNNEL Labeling Index (%): peptide for 16 hours, then 100 nM DHT for further 48 hours, hair matrix keratinocytes; for TUNEL-positive keratinocytes versus vehicle or 18-mer (in words): vibrissae with 100 nM DHT
Procedure: as §3
(§5) After fixing with 4% paraformaldehyde, cells were exposed to cold methanol for 2 minutes, and then treated with 1 N HCl at room temperature for 1 hour before performing immunofluorescence. BrdU-labeled DNA was detected by polyclonal anti-BrdU antibody and rhodamine-conjugated donkey anti-rabbit IgG.
as §4
Mouse vibrissae follicles were cultured as follows. Briefly, whisker pads were cut off from the face of mouse and transferred to a Petri dish containing PBS and 1% antibiotic mixture. Each vibrissae follicle that was in anagen was isolated from the whisker pads and cultured in DMEM supplemented with insulin (10 μg/ml), hydrocortisone (10 ng/ml, Sigma-Aldrich), 1% penicillin/streptomycin antibiotic mixture and L-glutamine (2 mM), using 24-well culture plates (3 vibrissae follicles per well) and incubated at 37° C., in 5% CO2. Ten to fifteen HFs were studied in each experimental group, and were repeated three times. DHT and PEDF peptide dissolved in DMSO were added to the HF culture supplemented with insulin and hydrocortisone (the final concentration of DMSO was less than 0.05%).
Each PEDF peptide (29-mer, 24-mer, 20-mer, or Mo 20-mer) was added to organ culture of male mouse vibrissal hair follicles (HFs) for 16 hours, and then 100 nM DHT was added for further 48 hours.
Immunodetections of TUNEL- and BrdU-positive cells in cryosections were used for assessing apoptosis and proliferation activity in the HF epithelium, respectively. The labeling index (%) of TUNEL- and BrdU-positive cells was computed as the number of labeled cells divided by the total number of cells with nuclei.

[2] = tested on: human epidermal keratinocytes (HaCaT); test: BrdU incorporation in HaCaT keratinocytes in response to TGF-β1 and PEDF-derived peptide; assay type: cell-based
Procedure: as §5
An immortalized human keratinocyte cell line (HaCaT) was cultured at 37° C. in 10% FBS-DMEM. Treatments with PEDF peptide and recombinant human TGFβ1 (R&D Systems) were performed on cells seeded in 5% FBS-DMEM.
It is known that DHT would induce the expression of transforming growth factor-β1 (TGF-β1) in dermal papilla cells (DPCs), and TGF-β1 is a catagen inducer that suppresses hair growth and follicular keratinocyte growth in subjects with androgenic alopecia. To further confirm that PEDF-derived peptide is able to protect keratinocytes from DHT-mediated growth suppression, the cell division of human epidermal keratinocytes (HaCaT) in response to TGF-β1 and PEDF-derived peptide were assessed by BrdU incorporation. The labeling index (%) of BrdU-positive cells was computed as the number of labeled cells divided by the total number of cells with nuclei.
However, in the TGF-β1+20-mer treatment group, TGF-β1 was unable to suppress the proliferative activity of HaCaT, when cells were pretreated with 20-mer for 16 hours.

[3] = DHT 30 mg/kg s.c., gel 25 μM once per day for 3 days

## SLGAEQRTESIIHRALYYDL [20-mer, corresponds to residues 93-112 of human PEDF]
C57BL/6 mice
  Numbers of Hair Bulbs/mm deep subcutis: 6.8 ± 1.24 /mm
  increase in total number of hair bulbs versus vehicle or 18-mer: 1.6 fold
  hair regrowth after depilation (FIG. 7, in words): amelioration of the retardation of hair regrowth
  Hair Growth Score: 4.25 ± 0.25
Male C57BL/6 mice
  hair cycle phase of hair follicles (histology, in words): mostly in the anagen phase; also recorded: significantly higher percentage of hair follicles was found in the anagen phase, and the early catagen phase
Male C57BL/6 mice; [3]
  BrdU Labeling Index (%) in HB: 45.2 ± 2.47 %
  Phase (%) Anagen-Catagen I: 39.0 ± 2.8 %
  Phase (%) Catagen II-III: 33.95 ± 1.25%
  Phase (%) Catagen IV-V: 23.6 ± 1.8%
  Phase (%) Catagen VI-VIII: 3.45 ± 0.25 %
[1]
  BrdU Labeling Index (%): 23.6 ± 4.56 %
  TUNNEL Labeling Index (%): 6.8 ± 1.68 %
  TUNEL-positive keratinocytes versus vehicle or 18-mer (in words): much less TUNEL-positive keratinocytes
[1]; peptide pretreatment, then 100 nM DHT
  hair matrix histology (H&E, FIG. 5): regularly aligned keratinocytes and much less abnormal melanin particles
[2]
  BrdU Labeling Index (%): 23.3 ± 2.46%
[2]; TGF-β1 + 20-mer: pretreated with 20-mer for 16 hours, then TGF-β1 4 ng/ml, 24 hours
  BrdU Labeling Index (%): 32.3 ± 3.70 %

## transforming growth factor-β1 [TGF-β1, reference compound]
[2]
  BrdU Labeling Index (%): 9.9 ± 2.23 %

## SLGAEQRTESIIHRALYYDLISSP [24-mer, corresponds to residues 93-116 of human PEDF]
C57BL/6 mice
  Numbers of Hair Bulbs/mm deep subcutis: 7.2 ± 1.07 /mm
  increase in total number of hair bulbs versus vehicle or 18-mer: 1.6 fold
  hair regrowth after depilation (FIG. 7, in words): amelioration of the retardation of hair regrowth
  Hair Growth Score: 4.13 ± 0.40
Male C57BL/6 mice
  hair cycle phase of hair follicles (histology, in words): significantly higher percentage of hair follicles was found in the anagen phase, and the early catagen phase
Male C57BL/6 mice; [3]
  BrdU Labeling Index (%) in HB: 46.9 ± 2.57 %
[1]
  BrdU Labeling Index (%): 22.0 ± 3.69 %
  TUNNEL Labeling Index (%): 6.5 ± 2.43 %
  TUNEL-positive keratinocytes versus vehicle or 18-mer (in words): much less TUNEL-positive keratinocytes

## SLGAEQRTESIIHRALYYDLISSPDIHGT [29-mer, corresponds to residues 93-121 of human PEDF]
C57BL/6 mice
  Numbers of Hair Bulbs/mm deep subcutis: 7.4 ± 1.03 /mm
  increase in total number of hair bulbs versus vehicle or 18-mer: 1.6 fold
  hair regrowth after depilation (FIG. 7, in words): amelioration of the retardation of hair regrowth
  Hair Growth Score: 3.75 ± 0.37
Male C57BL/6 mice
  hair cycle phase of hair follicles (histology, in words): mostly in the anagen phase; also recorded: significantly higher percentage of hair follicles was found in the anagen phase, and the early catagen phase
Male C57BL/6 mice; [3]
  BrdU Labeling Index (%) in HB: 44.89 ± 2.95 %
  Phase (%) Anagen-Catagen I: 39.85 ± 1.35 %
  Phase (%) Catagen II-III: 37.8 ± 1.3%
  Phase (%) Catagen IV-V: 19.15 ± 2.05%
  Phase (%) Catagen VI-VIII: 3.2 ± 0.6 %
[1]
  BrdU Labeling Index (%): 22.6 ± 2.42 %
  TUNNEL Labeling Index (%): 5.8 ± 2.12 %
  TUNEL-positive keratinocytes versus vehicle or 18-mer (in words): much less TUNEL-positive keratinocytes

## SLGAEHRTESVIHRALYYDL [Mo 20-mer, synthetic peptide derived from mouse PEDF]
[1]
  BrdU Labeling Index (%): 24.6 ± 2.56 %
  TUNNEL Labeling Index (%): 7.3 ± 1.75 %
  TUNEL-positive keratinocytes versus vehicle or 18-mer (in words): much less TUNEL-positive keratinocytes

## EQRTESIIHRALYYDLIS [18-mer, 18-mer peptide without the SLGA residues]
C57BL/6 mice
  Numbers of Hair Bulbs/mm deep subcutis: 4.8 ± 0.86 /mm
  hair regrowth after depilation (FIG. 7, in words): remarkable retardation of hair regrowth
  Hair Growth Score: 1.88 ± 0.40
Male C57BL/6 mice
  hair cycle phase of hair follicles (histology, in words): entered catagen; also recorded: in the middle and late catagen phase
Male C57BL/6 mice; [3]
  TUNNEL-positive cell/HF in HM and ORS: 7.6 ± 1.5 cell/HF
  BrdU Labeling Index (%) in HB: 25.6 ± 2.52%
  Phase (%) Anagen-Catagen I: 9.7 ± 1.8%
  Phase (%) Catagen II-III: 13.85 ± 1.75%
  Phase (%) Catagen IV-V: 53.05 ± 0.85%
  Phase (%) Catagen VI-VIII: 23.4 ± 4.4%
[1]
  BrdU Labeling Index (%): 8.4 ± 1.21%
  TUNNEL Labeling Index (%): 26.2 ± 4.21%
